Reference: US7538102B2, “Compounds for the treatment of Hepatitis C” (Bristol-Myers Squibb Company, priority 2007, dated 2009)

How the values were obtained:
[1] = test system: HCV replicon; assay: HCV replicon FRET / luciferase assay; assay type: cell-based; details: Hepatitis C virus; HCV replicon cells; 50% reduction in FRET or luciferase activity; read-out: EC50
Description: FRET Assay Preparation. The HCV FRET screening assay was performed in 96-well cell culture plates. The FRET peptide (Anaspec, Inc.) (Taliani et al., Anal. Biochem. 1996, 240, 60-67) contains a fluorescence donor, EDANS, near one end of the peptide and an acceptor, DABCYL, near the other end. The fluorescence of the peptide is quenched by […] resonance energy transfer (RET) between the donor and the acceptor, but as the NS3 protease cleaves the peptide the products are released from RET quenching and the fluorescence of the donor becomes apparent. The assay reagent was made as follows: 5× cell Luciferase cell culture lysis reagent from Promega (#E153A) diluted to 1× with dH2O, NaCl added to 150 mM final, the FRET peptide diluted to 20 μM final from a 2 mM stock.
To prepare plates, HCV replicon cells, with or without a Renilla luciferase reporter gene, were trypsinized and plated in a 96-well plate with titrated test compounds added in columns 3 through 12; columns 1 and 2 contained a control compound (HCV control inhibitor), and the bottom row contained cells with DMSO only. The plates were then placed in a CO2 incubator at 37° C.
Assays. Subsequent to addition of the test compounds described above (FRET Assay Preparation), at various times the plate was removed and Alamar blue solution (Trek Diagnostics, #00-100) was added to measure cellular toxicity. After reading in a Cytoflour 4000 instrument (PE Biosystems), plates were rinsed with PBS and then used for FRET assay by the addition of 30 ul of the FRET peptide assay reagent described above (FRET Assay Preparation) per well. The plate was then placed into the Cytoflour 4000 instrument which had been set to 340 excite/490 emission, automatic mode for up to 20 cycles and the plate read in a kinetic mode. Typically, the signal to noise using an endpoint analysis after the reads was at least three-fold. Alternatively, after Alamar blue reading, plates were rinsed with PBS, then used for luciferase assay using the Promega Dual-Glo Luciferase Assay System or the Promega EnduRen Live Cell Substrate assay.
Compound analysis was performed by quantification of the relative HCV replicon inhibition and the relative cytotoxicity values. To calculate cytoxicity values, the average Alamar Blue fluorescence signals from the control wells were set as 100% non-toxic. The individual signals in each of the compound test wells were then divided by the average control signal and multiplied by 100% to determine […]. To calculate the HCV replicon inhibition values, an average background value was obtained from the two wells containing the highest amount of HCV control inhibitor at the end of the assay period. These numbers were similar to those obtained from naive Huh-7 cells. The background numbers were then subtracted from the average signal obtained from the control wells and this number was used as 100% activity. The individual signals in each of the compound test wells were then divided by the averaged control values after background subtraction and multiplied by 100% to determine percent activity. EC50 values were calculated as the concentration which caused a 50% reduction in FRET or luciferase activity. The two numbers generated for the compound plate, percent cytoxicity and percent activity, were used to determine compounds of interest for further analysis.

[2] = biological target: T1, HCV NS5B (Hepatitis C virus genotype 1b, UniProt Q9WMX2); assay: HCV NS5B RdRp enzyme assay (standard or modified); assay type: biochemical; details: HCV NS5B RdRp genotype 1b; standard or modified enzyme assay not specified; read-out: IC50
T1 construct: The protein was expressed with an 18 amino acid C-terminal truncation to enhance the solubility; made in house; host or cells: E. coli BL21(DE3)
Description: HCV NS5B RdRp cloning, expression, and purification. The cDNA encoding the NS5B protein of HCV, genotype 1b, was cloned into the pET21a expression vector. The protein was expressed with an 18 amino acid C-terminal truncation to enhance the solubility. The E. coli competent cell line BL21(DE3) was used for expression of the protein. Cultures were grown at 37° C. for ˜4 hours until the cultures reached an optical density of 2.0 at 600 nm. The cultures were cooled to 20° C. and induced with 1 mM IPTG. Fresh ampicillin was added to a final concentration of 50 μg/ml and the cells were grown overnight at 20° C.
Cell pellets (3 L) were lysed for purification to yield 15-24 mgs of purified NS5B. The lysis buffer consisted of 20 mM Tris-HCl, pH 7.4, 500 mM NaCl, 0.5% triton X-100, 1 mM DTT, 1mM EDTA, 20% glycerol, 0.5 mg/ml lysozyme, 10 mM MgCl2, 15 ug/ml deoxyribonuclease I, and Complete TM protease inhibitor tablets (Roche). After addition of the lysis buffer, frozen cell pellets were resuspended using a tissue homogenizer. To reduce the viscosity of the sample, aliquots of the lysate were sonicated on ice using a microtip attached to a Branson sonicator. The sonicated lysate was centrifuged at 100,000×g for 1 hr at 4° C. and filtered through a 0.2 μm filter unit (Corning).
The protein was purified using two sequential chromatography steps: Heparin sepharose CL-6B and polyU sepharose 4B (Pharmacia). The chromatography buffers were identical to the lysis buffer but contained no lysozyme, deoxyribonuclease I, MgCl2 or protease inhibitor and the NaCl concentration of the buffer was adjusted according to the requirements for charging the protein onto the column. Each column was eluted with a NaCl gradient which varied in length from 5-50 column volumes depending on the column type. After the final chromatography step, the resulting purity of the enzyme is >90% based on SDS-PAGE analysis. The enzyme was aliquoted and stored at −80° C.
Standard HCV NS5B RdRp enzyme assay. HCV RdRp genotype 1b assays were run in a final volume of 60 μl in 96 well plates (Corning 3600). The assay buffer is composed of 20 mM Hepes, pH 7.5, 2.5 mM KCl, 2.5 mM MgCl2, 1 mM DTT, 1.6 U RNAse inhibitor (Promega N2515), 0.01 mg/ml BSA (Sigma B6917), and 2% glycerol. All compounds were serially diluted (3-fold) in DMSO and diluted further in water such that the final concentration of DMSO in the assay was 2%. HCV RdRp genotype 1b enzyme was used at a final concentration of 28 nM. A polyA template was used at 6 nM, and a biotinylated oligo-dT12 primer was used at 180 nM final concentration. Template was obtained commercially (Amersham 27-4110). Biotinylated primer was prepared by Sigma Genosys. 3H-UTP was used at 0.6 μCi (0.29 μM total UTP). Reactions were initiated by the addition of enzyme, incubated at 30° C. for 60 min, and stopped by adding 25 μl of 50 mM EDTA containing SPA beads (4 μg/pl, Amersham RPNQ 0007). Plates were read on a Packard Top Count NXT after >1 hr incubation at room temperature.
Modified HCV NS5B RdRp enzyme assay. A modified enzyme assay was performed essentially as described for the standard enzyme assay except for the following: The biotinylated oligo dT12 primer was precaptured on streptavidin-coated SPA beads by mixing primer and beads in assay buffer and incubating at room temperature for one hour. Unbound primer was removed after centrifugation. The primer-bound beads were resuspended in 20 mM Hepes buffer, pH 7.5 and used in the assay at final concentrations of 20 nM primer and 0.67 μg/μl beads. Order of addition in the assay: enzyme (1.75 nM) was added to diluted compound followed by the addition of a mixture of template (0.36 nM), 3H-UTP (0.6 μCi, 0.29 μM), and primer-bound beads, to initiate the reaction; concentrations given are final. Reactions were allowed to proceed for 4 hours at 30° C.
IC50 values for compounds were determined using seven different [I]. […]

T1 sequence (Q9WMX2 2420-2992): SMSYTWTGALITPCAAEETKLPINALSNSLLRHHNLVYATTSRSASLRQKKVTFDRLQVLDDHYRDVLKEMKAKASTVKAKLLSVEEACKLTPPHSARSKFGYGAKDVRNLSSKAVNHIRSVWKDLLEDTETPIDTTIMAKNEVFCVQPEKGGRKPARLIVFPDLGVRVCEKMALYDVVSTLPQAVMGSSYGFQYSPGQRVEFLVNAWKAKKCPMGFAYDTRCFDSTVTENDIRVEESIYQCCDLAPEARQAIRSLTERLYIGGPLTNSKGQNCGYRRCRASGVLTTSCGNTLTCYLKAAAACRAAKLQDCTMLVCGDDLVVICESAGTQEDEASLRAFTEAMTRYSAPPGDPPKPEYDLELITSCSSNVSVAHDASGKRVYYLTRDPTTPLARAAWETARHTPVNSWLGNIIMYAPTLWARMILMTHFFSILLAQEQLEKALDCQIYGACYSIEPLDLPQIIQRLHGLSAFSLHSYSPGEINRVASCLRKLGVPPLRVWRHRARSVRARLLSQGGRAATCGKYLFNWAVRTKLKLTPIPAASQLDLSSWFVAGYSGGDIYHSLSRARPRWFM

Compound	EC50 [1]	IC50 [2]
COc1ccc2c(c1)C1CC1(C(=O)N(C)C1CCN(C)CC1)Cn1c-2c(C2CCCCC2)c2ccc(C(=O)NS(=O)(=O)N(C)C)cc21 (stereo not drawn)	3 to 1000 nM	3 to 1000 nM
COc1ccc2c(c1)C1CC1(C(=O)N1CCN(c3cnccn3)CC1)Cn1c-2c(C2CCCCC2)c2ccc(C(=O)NS(=O)(=O)C3CC3)cc21 (stereo not drawn)	3 to 1000 nM	3 to 1000 nM
COc1ccc2c(c1)C1CC1(C(=O)N(C)[C@@H]1CCCC[C@H]1N(C)C)Cn1c-2c(C2CCCCC2)c2ccc(C(=O)NS(=O)(=O)N(C)C)cc21 (stereo partly drawn)	3 to 1000 nM	3 to 1000 nM
COc1ccc2c(c1)C1CC1(C(=O)N(C)CC1CCCCN1C)Cn1c-2c(C2CCCCC2)c2ccc(C(=O)NS(=O)(=O)N(C)C)cc21 (stereo not drawn)	3 to 1000 nM	3 to 1000 nM
COc1ccc2c(c1)C1CC1(C(=O)N1CCCN(Cc3cccnc3)CC1)Cn1c-2c(C2CCCCC2)c2ccc(C(=O)NS(C)(=O)=O)cc21 (stereo not drawn)	3 to 1000 nM	3 to 1000 nM
COc1ccc2c(c1)C1CC1(C(=O)N1CCCN(Cc3cccnc3)CC1)Cn1c-2c(C2CCCCC2)c2ccc(C(=O)NS(=O)(=O)N3CCC3)cc21 (stereo not drawn)	3 to 1000 nM	3 to 1000 nM
COc1ccc2c(c1)C1CC1(C(=O)N1CCN(Cc3ccccc3)C[C@H]1C)Cn1c-2c(C2CCCCC2)c2ccc(C(=O)NS(C)(=O)=O)cc21 (stereo partly drawn)	3 to 1000 nM	3 to 1000 nM
COc1ccc2c(c1)C1CC1(C(=O)N(C)CC1(C3CCCCC3)CCCCC1)Cn1c-2c(C2CCCCC2)c2ccc(C(=O)NS(=O)(=O)N(C)C)cc21 (stereo not drawn)	3 to 1000 nM	3 to 1000 nM
COc1ccc2c(c1)C1CC1(C(=O)N1CCN(C)CC1c1ccccc1)Cn1c-2c(C2CCCCC2)c2ccc(C(=O)NS(C)(=O)=O)cc21 (stereo not drawn)	3 to 1000 nM	3 to 1000 nM
COc1ccc2c(c1)C1CC1(C(=O)N(C1CC1)[C@@H]1CCCC[C@H]1N(C)C)Cn1c-2c(C2CCCCC2)c2ccc(C(=O)NS(=O)(=O)N(C)C)cc21 (stereo partly drawn)	3 to 1000 nM	3 to 1000 nM
COc1ccc2c(c1)C1CC1(C(=O)N1CCCN(C(=O)OC(C)(C)C)CC1)Cn1c-2c(C2CCCCC2)c2ccc(C(=O)NS(=O)(=O)C(C)C)cc21 (stereo not drawn)	3 to 1000 nM	3 to 1000 nM
COc1ccc2c(c1)C1CC1(C(=O)N1CCCN(Cc3cccnc3)CC1)Cn1c-2c(C2CCCCC2)c2ccc(C(=O)NS(=O)(=O)N(C)C)cc21 (stereo not drawn)	3 to 1000 nM	3 to 1000 nM
COc1ccc2c(c1)C1CC1(C(=O)N1CCNC(c3ccc(F)cc3)C1)Cn1c-2c(C2CCCCC2)c2ccc(C(=O)NS(=O)(=O)N(C)C)cc21 (stereo not drawn)	3 to 1000 nM	3 to 1000 nM
COc1ccc2c(c1)C=C(C(=O)N1CCCN(CCCN3CCOCC3)CC1)Cn1c-2c(C2CCCCC2)c2ccc(C(=O)NS(=O)(=O)C3CC3)cc21		3 to 1000 nM
